# In patent US11807644B2 (PMV Pharmaceuticals, Inc., priority 2020, dated 2023):
# Biological target: T1, recombinant His-tag Y220C p53 DBD protein (Homo sapiens, UniProt P04637, Y220C)
# T1 construct: recombinant His-tag Y220C p53 DBD protein (amino acids #˜94-312)
# Assay: In vitro DNA binding activity assay (TR-FRET): binding of His-tag Y220C p53 DBD to biotin-labeled consensus DNA
# Assay type: biochemical
# Details: SC150 = concentration to increase DNA binding by […], His-tag Y220C p53 DBD, biotin-labeled consensus DNA
row,SMILES,Y220C SC150 (μM)
1,"Cc1nn(C(C)C)cc1C(=O)NCc1nc(-c2cc3c(N[C@@H]4CCN(C)C[C@@H]4F)cccc3n2CC(F)(F)F)no1 [Compound 311B, N-{[3-(4-{[(3S,4R)-3-fluoro-1-methylpiperidin-4-yl]amino}-1-(2,2,2-trifluoroethyl)-1H-indol-2-yl)-1,2,4-oxadiazol-5-yl]methyl}-3-methyl-1-(propan-2-yl)-1H-pyrazole-4-carboxamide]",* (* = 0 μM ≤ SC150 < 0.1 μM)
2,"F[C@H]1CNCC[C@H]1Nc1cccc2c1cc(-c1noc(CNc3ccn[nH]3)n1)n2CC(F)(F)F [Compound 214B, N-[(3S,4R)-3-fluoropiperidin-4-yl]-2-(5-{[(1H-pyrazol-5-yl)amino]methyl}-1,2,4-oxadiazol-3-yl)-1-(2,2,2-trifluoroethyl)-1H-indol-4-amine]",* (* = 0 μM ≤ SC150 < 0.1 μM)
3,"CCN1CC[C@@H](Nc2cccc3c2cc(-c2noc(CNC(=O)c4ccn(C5CCOC5)c4)n2)n3CC(F)(F)F)[C@@H](F)C1 (stereo partly drawn) [Compound 324B, N-{[3-(4-{[(3S,4R)-1-ethyl-3-fluoropiperidin-4-yl]amino}-1-(2,2,2-trifluoroethyl)-1H-indol-2-yl)-1,2,4-oxadiazol-5-yl]methyl}-1-(oxolan-3-yl)-1H-pyrrole-3-carboxamide]",* (* = 0 μM ≤ SC150 < 0.1 μM)
4,"Cn1cc(C(=O)NCc2nc(-c3cc4c(N[C@@H]5CCN(C(C)(C)C)C[C@@H]5F)cccc4n3CC(F)(F)F)no2)cn1 [Compound 405B, N-{[3-(4-{[(3S,4R)-1-tert-butyl-3-fluoropiperidin-4-yl]amino}-1-(2,2,2-trifluoroethyl)-1H-indol-2-yl)-1,2,4-oxadiazol-5-yl]methyl}-1-methyl-1H-pyrazole-4-carboxamide]",* (* = 0 μM ≤ SC150 < 0.1 μM)
5,"COC1CCCC1n1cc(C(=O)NCc2nc(-c3cc4c(N[C@@H]5CCN(C)C[C@@H]5F)cccc4n3CC(F)(F)F)no2)cn1 (stereo in doubt) [Compound 348B, N-{[3-(4-{[(3S,4R)-3-fluoro-1-methylpiperidin-4-yl]amino}-1-(2,2,2-trifluoroethyl)-1H-indol-2-yl)-1,2,4-oxadiazol-5-yl]methyl}-1-[(1R,2R)-2-methoxycyclopentyl]-1H-pyrazole-4-carboxamide]",* (* = 0 μM ≤ SC150 < 0.1 μM)
6,"CC1(n2ccc(C(=O)NCc3nc(-c4cc5c(N[C@@H]6CCNC[C@@H]6F)cccc5n4CC(F)(F)F)no3)c2)CCOCC1 [Compound 477B, N-{[3-(4-{[(3S,4R)-3-fluoropiperidin-4-yl]amino}-1-(2,2,2-trifluoroethyl)-1H-indol-2-yl)-1,2,4-oxadiazol-5-yl]methyl}-1-(4-methyloxan-4-yl)-1H-pyrrole-3-carboxamide]",* (* = 0 μM ≤ SC150 < 0.1 μM)
7,"CCN1CC[C@H](Nc2cccc3c2cc(-c2noc(CNC(=O)c4ccn(CCOC)c4)n2)n3CC(F)(F)F)[C@H](F)C1 [Compound 273B, N-{[3-(4-{[(3R,4S)-1-ethyl-3-fluoropiperidin-4-yl]amino}-1-(2,2,2-trifluoroethyl)-1H-indol-2-yl)-1,2,4-oxadiazol-5-yl]methyl}-1-(2-methoxyethyl)-1H-pyrrole-3-carboxamide]",* (* = 0 μM ≤ SC150 < 0.1 μM)
8,CC(C)(C)n1cnc(C(=O)NCc2nc(-c3cc4c(N[C@@H]5CCN(C6CC6)C[C@@H]5F)cccc4n3CC(F)(F)F)no2)c1 [Compound 329B],* (* = 0 μM ≤ SC150 < 0.1 μM)
9,"CN1CC[C@@H](Nc2cccc3c2cc(-c2noc(CNC(=O)[C@H]4C[C@@H]4C#N)n2)n3CC(F)(F)F)[C@@H](F)C1 (racemic) [Compound 193B, (1RS,2RS)-2-cyano-N-{[3-(4-{[(3S,4R)-3-fluoro-1-methylpiperidin-4-yl]amino}-1-(2,2,2-trifluoroethyl)-1H-indol-2-yl)-1,2,4-oxadiazol-5-yl]methyl}cyclopropane-1-carboxamide]",* (* = 0 μM ≤ SC150 < 0.1 μM)
10,"Cc1nc2c(s1)CC(Nc1cccc3c1cc(-c1noc(CNC(=O)c4ccn(C(C)(C)C)c4)n1)n3CC(F)(F)F)CC2 (centres unmarked) [Compound 368B, 1-tert-butyl-N-[(3-{4-[(2-methyl-4,5,6,7-tetrahydro-1,3-benzothiazol-6-yl)amino]-1-(2,2,2-trifluoroethyl)-1H-indol-2-yl}-1,2,4-oxadiazol-5-yl)methyl]-1H-pyrrole-3-carboxamide]",*** (*** = 0.5 μM ≤ SC150 < 1 μM)
11,"CC(C)(C)N1CC[C@@H](Nc2cccc3c2cc(-c2noc(CNC(=O)c4cnn(C(C)(C)C)c4)n2)n3CC(F)(F)F)[C@H](F)C1 [Compound 402B, 1-tert-butyl-N-{[3-(4-{[(3R,4R)-1-tert-butyl-3-fluoropiperidin-4-yl]amino}-1-(2,2,2-trifluoroethyl)-1H-indol-2-yl)-1,2,4-oxadiazol-5-yl]methyl}-1H-pyrazole-4-carboxamide]",* (* = 0 μM ≤ SC150 < 0.1 μM)
12,"COC(C)(C)c1ccc(C(=O)NCc2nc(-c3cc4c(N[C@@H]5CCN(C)C[C@@H]5F)cccc4n3CC(F)(F)F)no2)s1 [Compound 439B, N-{[3-(4-{[(3S,4R)-3-fluoro-1-methylpiperidin-4-yl]amino}-1-(2,2,2-trifluoroethyl)-1H-indol-2-yl)-1,2,4-oxadiazol-5-yl]methyl}-5-(2-methoxypropan-2-yl)thiophene-2-carboxamide]",* (* = 0 μM ≤ SC150 < 0.1 μM)

# More lines, now with the values ahead:
row,Y220C SC150 (μM),SMILES
1,** (** = 0.1 μM ≤ SC150 < 0.5 μM),"CN1CC[C@@H](Nc2cccc3c2cc(-c2noc(CNC(=O)[C@@H]4C[C@@H]4c4ccccc4)n2)n3CC(F)(F)F)[C@@H](F)C1 [Compound 207B, (1R,2S)-N-{[3-(4-{[(3S,4R)-3-fluoro-1-methylpiperidin-4-yl]amino}-1-(2,2,2-trifluoroethyl)-1H-indol-2-yl)-1,2,4-oxadiazol-5-yl]methyl}-2-phenylcyclopropane-1-carboxamide]"
2,**** (**** = 1 μM ≤ SC150 < 10 μM),"O=S1(=O)CCC(Nc2cccc3c2cc(-c2cnn(CCO)c2)n3CC(F)(F)F)CC1 [Compound 15B, 4-({2-[1-(2-hydroxyethyl)-1H-pyrazol-4-yl]-1-(2,2,2-trifluoroethyl)-1H-indol-4-yl}amino)-1λ^6-thiane-1,1-dione]"
3,** (** = 0.1 μM ≤ SC150 < 0.5 μM),"CN1CC[C@H](Nc2cccc3c2cc(-c2nnc(CNC(=O)C4CC4)s2)n3CC(F)(F)F)[C@H](F)C1 [Compound 25B, N-{[5-(4-{[(3R,4S)-3-fluoro-1-methylpiperidin-4-yl]amino}-1-(2,2,2-trifluoroethyl)-1H-indol-2-yl)-1,3,4-thiadiazol-2-yl]methyl}cyclopropanecarboxamide]"
4,* (* = 0 μM ≤ SC150 < 0.1 μM),"CN1CC[C@@H](Nc2cccc3c2cc(-c2noc(CNC(=O)[C@H]4C[C@H](C)C4)n2)n3CC(F)(F)F)[C@@H](F)C1 [Compound 212B, (1s,3r)-N-{[3-(4-{[(3S,4R)-3-fluoro-1-methylpiperidin-4-yl]amino}-1-(2,2,2-trifluoroethyl)-1H-indol-2-yl)-1,2,4-oxadiazol-5-yl]methyl}-3-methylcyclobutane-1-carboxamide]"
5,* (* = 0 μM ≤ SC150 < 0.1 μM),"CN1CC[C@@H](Nc2cccc3c2cc(-c2noc(CNC(=O)c4cccn4CCF)n2)n3CC(F)(F)F)[C@@H](F)C1 [Compound 540B, N-{[3-(4-{[(3S,4R)-3-fluoro-1-methylpiperidin-4-yl]amino}-1-(2,2,2-trifluoroethyl)-1H-indol-2-yl)-1,2,4-oxadiazol-5-yl]methyl}-1-(2-fluoroethyl)-1H-pyrrole-2-carboxamide]"
6,** (** = 0.1 μM ≤ SC150 < 0.5 μM),"CN1CC[C@@H](Nc2cccc3c2cc(-c2noc(C(=O)NCC4CC4)n2)n3CC(F)(F)F)[C@@H](F)C1 [Compound 545B, N-(cyclopropylmethyl)-3-(4-{[(3S,4R)-3-fluoro-1-methylpiperidin-4-yl]amino}-1-(2,2,2-trifluoroethyl)-1H-indol-2-yl)-1,2,4-oxadiazole-5-carboxamide]"
7,* (* = 0 μM ≤ SC150 < 0.1 μM),"CN1CC[C@@H](Nc2cccc3c2cc(-c2noc(CNC(=O)c4ccccn4)n2)n3CC(F)(F)F)[C@@H](F)C1 [Compound 201B, N-{[3-(4-{[(3S,4R)-3-fluoro-1-methylpiperidin-4-yl]amino}-1-(2,2,2-trifluoroethyl)-1H-indol-2-yl)-1,2,4-oxadiazol-5-yl]methyl}pyridine-2-carboxamide]"
8,* (* = 0 μM ≤ SC150 < 0.1 μM),"CN1CC[C@@H](Nc2cccc3c2cc(-c2noc(CNC(=O)c4csc(Cl)c4)n2)n3CC(F)(F)F)[C@@H](F)C1 [Compound 213B, 5-chloro-N-{[3-(4-{[(3S,4R)-3-fluoro-1-methylpiperidin-4-yl]amino}-1-(2,2,2-trifluoroethyl)-1H-indol-2-yl)-1,2,4-oxadiazol-5-yl]methyl}thiophene-3-carboxamide]"
9,* (* = 0 μM ≤ SC150 < 0.1 μM),"COC1CCC(n2ccc(C(=O)NCc3nc(-c4cc5c(N[C@@H]6CCN(C)C[C@@H]6F)cccc5n4CC(F)(F)F)no3)c2)C1 (stereo in doubt) [Compound 359B, N-{[3-(4-{[(3S,4R)-3-fluoro-1-methylpiperidin-4-yl]amino}-1-(2,2,2-trifluoroethyl)-1H-indol-2-yl)-1,2,4-oxadiazol-5-yl]methyl)-1-[(1R,3S)-3-methoxycyclopentyl]-1H-pyrrole-3-carboxamide]"
10,**** (**** = 1 μM ≤ SC150 < 10 μM),"Cn1ccc(-c2cc3c(NC4CCS(=O)(=O)CC4)cccc3n2CC(F)(F)F)n1 [Compound 14B, 4-{[2-(1-methyl-1H-pyrazol-3-yl)-1-(2,2,2-trifluoroethyl)-1H-indol-4-yl]amino}-1λ^6-thiane-1,1-dione]"

# Same assay, conditions: concentration to increase DNA binding by […], incubated at either 27° C. or 29° C. for 60 min
row,SMILES,SC150 (μM)
1,"COCC(O)CN1CCC(Nc2cccc3c2cc(-c2ccc4c(c2)NC(=O)C4)n3CC(F)(F)F)CC1 (centres unmarked) [Compound 49A, 4-{[1-(2-hydroxy-3-methoxypropyl)piperidin-4-yl]amino}-1-(2,2,2-trifluoroethyl)-2′,3′-dihydro-1H,1′H-[2,6′-biindol]-2′-one]",++ (++ = 2 μM ≤ SC150 < 5 μM)
